Data taken from patent US5462935A, “Cephalosporin compounds” (Lucky Limited, priority 1990, dated 1995).
Converted amounts (≈) assume the structure as drawn.

Key:
[1] = system: Pseudomonas aeruginosa ATCC 25619; assay: minimal inhibitory concentration, two-fold agar dilution; assay type: cell-based; details: ATCC25619, Muller-Hinton agar, 37° C., 20 hours
Description: (§1) These NIC values were taken by employing a two-fold dilution method: that is, two-fold serial dilutions of each of the test compounds were made and dispersed in a Muller-Hinton agar medium; 2 μl of the standard test strain which had the 10^7 CFU (Colony Forming Unit) per ml was inoculated on the medium; and these were incubated at 37° C. for 20 hours.

[2] = system: Acinetobacter calcoaceticus ATCC 15473; assay: as above; assay type: cell-based; details: ATCC15473, Muller-Hinton agar, 37° C., 20 hours
Description: as §1

[3] = system: Enterobacter aerogenes ATCC 29751; assay: as above; assay type: cell-based; details: Klebsiella aerogenes, ATCC29751, 20 h
Description: as §1

[4] = system: Pseudomonas aerugionsa ATCC 10145; assay: as above; assay type: cell-based; details: ATCC10145, Muller-Hinton agar, 37° C., 20 hours
Description: as §1

[5] = system: Micrococcus luteus ATCC 9341; assay: as above; assay type: cell-based; details: ATCC9341, Muller-Hinton agar, 37° C., 20 hours
Description: as §1

[6] = system: Bacillus megaterium ATCC 9885; assay: as above; assay type: cell-based; details: Priestia megaterium, ATCC9885, 20 h
Description: as §1

[7] = system: Streptococcus faecalis ATCC 29212; assay: as above; assay type: cell-based; details: Enterococcus faecalis, ATCC29212, Muller-Hinton agar, 37° C., 20 hours
Description: as §1

[8] = system: Shigella sonnei ATCC 11060; assay: as above; assay type: cell-based; details: ATCC11060, Muller-Hinton agar, 37° C., 20 hours
Description: as §1

[9] = system: Salmonella typhimurium ATCC 14028; assay: as above; assay type: cell-based; details: Salmonella enterica, Muller-Hinton agar, 37° C., 20 hours
Description: as §1

[10] = system: Citrobacter freundii ATCC 8090; assay: as above; assay type: cell-based; details: ATCC8090, Muller-Hinton agar, 37° C., 20 hours
Description: as §1

[11] = system: Proteus vulgaris ATCC 6059; assay: as above; assay type: cell-based; details: ATCC6059, Muller-Hinton agar, 37° C., 20 hours
Description: as §1

[12] = system: Pseudomonas aerugionsa ATCC 27853; assay: as above; assay type: cell-based; details: ATCC27853, Muller-Hinton agar, 37° C., 20 hours
Description: as §1

[13] = system: Klebsiella pneumoniae ATCC 10031; assay: as above; assay type: cell-based; details: ATCC10031, Muller-Hinton agar, 37° C., 20 hours
Description: as §1

[14] = system: Staphylococcus epidermidis ATCC 10537; assay: as above; assay type: cell-based; details: ATCC10537, Muller-Hinton agar, 37° C., 20 hours
Description: as §1

[15] = system: Escherichia coli ATCC 25922; assay: as above; assay type: cell-based; details: ATCC25922, Muller-Hinton agar, 37° C., 20 hours
Description: as §1

[16] = system: Providencia rettgeri ATCC 9250; assay: as above; assay type: cell-based; details: ATCC9250, Muller-Hinton agar, 37° C., 20 hours
Description: as §1

[17] = system: Shigella flexneri ATCC 11836; assay: as above; assay type: cell-based; details: ATCC11836, Muller-Hinton agar, 37° C., 20 hours
Description: as §1

[18] = system: Serratia marcescens ATCC 27117; assay: as above; assay type: cell-based; details: ATCC27117, Muller-Hinton agar, 37° C., 20 hours
Description: as §1

[19] = system: Enterobacter cloacae ATCC 27508; assay: as above; assay type: cell-based; details: ATCC27508, Muller-Hinton agar, 37° C., 20 hours
Description: as §1

ATCC 12228 = assay: as above; assay type: cell-based; details: Staphylococcus faecalis, ATCC12228, 20 h
Description: as §1

[20] = system: Proteus mirabilis ATCC 25933; assay: as above; assay type: cell-based; details: ATCC25933, Muller-Hinton agar, 37° C., 20 hours
Description: as §1

[21] = system: Bacillus cereus ATCC 11778; assay: as above; assay type: cell-based; details: Bacillus cereus, ATCC11778, 20 h
Description: as §1

[22] = system: Escherichia coli ATCC 10536; assay: as above; assay type: cell-based; details: ATCC10536, Muller-Hinton agar, 37° C., 20 hours
Description: as §1

[23] = system: Staphylococcus aureus ATCC 6638p; assay: as above; assay type: cell-based; details: ATCC6638P, 20 h
Description: as §1

[24] = system: Morganella morganii ATCC 8076h; assay: as above; assay type: cell-based; details: ATCC8076H, 20 h
Description: as §1

[25] = acute toxicity test, intravenous; details: mouse, in vivo, ICR mice, observed for 14 days
Text: The results are shown in the last row of Table 2.

| SMILES | MIC [1] [µg/mL] | MIC [2] [µg/mL] | MIC [3] [µg/mL] | MIC [4] [µg/mL] | MIC [5] [µg/mL] | MIC [6] [µg/mL] | MIC [7] [µg/mL] | MIC [8] [µg/mL] | MIC [9] [µg/mL] | MIC [10] [µg/mL] | MIC [11] [µg/mL] | MIC [12] [µg/mL] | MIC [13] [µg/mL] | MIC [14] [µg/mL] | MIC [15] [µg/mL] | MIC [16] [µg/mL] | MIC [17] [µg/mL] | MIC [18] [µg/mL] | MIC [19] [µg/mL] | MIC (ATCC 12228) [µg/mL] | also measured |
| --- | --- | --- | --- | --- | --- | --- | --- | --- | --- | --- | --- | --- | --- | --- | --- | --- | --- | --- | --- | --- | --- |
| CC[n+]1c(N)cc(N)nc1SCC1=C(C(=O)[O-])N2C(=O)C(NC(=O)/C(=N\O[C@@H](C)C(=O)O)c3csc(N)n3)[C@H]2SC1 (stereo partly drawn) [I-S-3, 7[(Z)-2-(2-aminothiazol-4-yl)-2[(S)-1-carboxyeth-1-oxyimino]acetamido]-3-[(4,6-diamino-1-ethylpyrimidinium-2-yl)thiomethyl]-3-cephem-4-carboxylate] | 1 (≈ 1.6 µM) | 4 (≈ 6.41 µM) | 1 (≈ 1.6 µM) | 2 (≈ 3.21 µM) | 0.25 (≈ 0.401 µM) | 0.25 (≈ 0.401 µM) | > 128 | 0.063 (≈ 0.101 µM) | 0.13 (≈ 0.208 µM) | 0.031 (≈ 0.0497 µM) | 0.031 (≈ 0.0497 µM) | 1 (≈ 1.6 µM) | 0.031 (≈ 0.0497 µM) | 1 (≈ 1.6 µM) | 0.031 (≈ 0.0497 µM) | ≤ 0.008 | 0.016 (≈ 0.0257 µM) | 0.063 (≈ 0.101 µM) | ≤ 0.008 | 1 (≈ 1.6 µM) | MIC [20]: 0.031 µg/mL (≈ 0.0497 µM); MIC [21]: 32 µg/mL (≈ 51.3 µM); MIC [22]: 0.031 µg/mL (≈ 0.0497 µM); MIC [23]: 2 µg/mL (≈ 3.21 µM); MIC [24]: ≤ 0.008 µg/mL; LD50 at 336 h [25]: > 3000 mg/kg |
| CCC[n+]1c(N)cc(N)nc1SCC1=C(C(=O)[O-])N2C(=O)C(NC(=O)/C(=N\O[C@@H](C)C(=O)O)c3csc(N)n3)[C@H]2SC1 (stereo partly drawn) [I-S-4, 7-[(Z)-2-(2-aminothiazol-4-yl)-2-[(S)-1-carboxyeth-1-oxyimino]acetamido]-3-[(4,6-diamino-1-propylpyrimidinium-2-yl)thiomethyl]-3-cephem-4-carboxylate] | 1 (≈ 1.57 µM) | 4 (≈ 6.27 µM) | 1 (≈ 1.57 µM) | 2 (≈ 3.14 µM) | 0.13 (≈ 0.204 µM) | 0.5 (≈ 0.784 µM) | > 128 | 0.063 (≈ 0.0988 µM) | 0.13 (≈ 0.204 µM) | 0.031 (≈ 0.0486 µM) | 0.031 (≈ 0.0486 µM) | 1 (≈ 1.57 µM) | 0.031 (≈ 0.0486 µM) | 1 (≈ 1.57 µM) | 0.031 (≈ 0.0486 µM) | ≤ 0.008 | 0.031 (≈ 0.0486 µM) | 0.13 (≈ 0.204 µM) | ≤ 0.008 | 1 (≈ 1.57 µM) | MIC [20]: 0.031 µg/mL (≈ 0.0486 µM); MIC [21]: 32 µg/mL (≈ 50.2 µM); MIC [22]: 0.031 µg/mL (≈ 0.0486 µM); MIC [23]: 2 µg/mL (≈ 3.14 µM); MIC [24]: ≤ 0.008 µg/mL; LD50 at 336 h [25]: > 3000 mg/kg |
| C[C@H](O/N=C(\C(=O)NC1C(=O)N2C(C(=O)[O-])=C(CSc3nc(N)cc(N)[n+]3-c3ccccc3)CS[C@H]12)c1csc(N)n1)C(=O)O (stereo partly drawn) [I-S-5, 7-[(Z)-2-(2-aminothiazol-4-yl)-2-[(S)-1-carboxyeth-1-oxyimino]acetamido]-3-[(4,6-diamino-1-phenylpyrimidinium-2-yl)thiomethyl]-3-cephem-4-carboxylate] | 2 (≈ 2.98 µM) | 16 (≈ 23.8 µM) | 2 (≈ 2.98 µM) | 8 (≈ 11.9 µM) | 0.25 (≈ 0.372 µM) | 0.25 (≈ 0.372 µM) | > 128 | 0.25 (≈ 0.372 µM) | 0.5 (≈ 0.744 µM) | 0.13 (≈ 0.194 µM) | 0.063 (≈ 0.0938 µM) | 4 (≈ 5.95 µM) | 0.13 (≈ 0.194 µM) | 4 (≈ 5.95 µM) | 0.25 (≈ 0.372 µM) | ≤ 0.008 | 0.13 (≈ 0.194 µM) | 0.5 (≈ 0.744 µM) | 0.031 (≈ 0.0461 µM) | 2 (≈ 2.98 µM) | MIC [20]: 0.13 µg/mL (≈ 0.194 µM); MIC [21]: 32 µg/mL (≈ 47.6 µM); MIC [22]: 0.25 µg/mL (≈ 0.372 µM); MIC [23]: 4 µg/mL (≈ 5.95 µM); MIC [24]: ≤ 0.008 µg/mL; LD50 at 336 h [25]: > 2000 mg/kg |
| Cc1c(N)nc(SCC2=C(C(=O)[O-])N3C(=O)C(NC(=O)/C(=N\O[C@@H](C)C(=O)O)c4csc(N)n4)C3SC2)[n+](C)c1N (stereo partly drawn) [I-S-6, 7-[(Z)-2-(2-aminothiazol-4-yl)-2-[(S)-1-carboxyeth-1-oxyimino]acetamido]-3-[(4,6-diamino-1,5-dimethylpyrimidinium-2-yl)thiomethyl]-3-cephem-4-carboxylate] | 1 (≈ 1.6 µM) | 4 (≈ 6.41 µM) | 0.5 (≈ 0.802 µM) | 2 (≈ 3.21 µM) | 0.25 (≈ 0.401 µM) | 0.25 (≈ 0.401 µM) | > 128 | 0.031 (≈ 0.0497 µM) | 0.13 (≈ 0.208 µM) | 0.016 (≈ 0.0257 µM) | 0.031 (≈ 0.0497 µM) | 1 (≈ 1.6 µM) | 0.031 (≈ 0.0497 µM) | 2 (≈ 3.21 µM) | 0.031 (≈ 0.0497 µM) | ≤ 0.008 | 0.016 (≈ 0.0257 µM) | 0.13 (≈ 0.208 µM) | ≤ 0.008 | 1 (≈ 1.6 µM) | MIC [20]: 0.031 µg/mL (≈ 0.0497 µM); MIC [21]: 64 µg/mL (≈ 103 µM); MIC [22]: 0.031 µg/mL (≈ 0.0497 µM); MIC [23]: 4 µg/mL (≈ 6.41 µM); MIC [24]: ≤ 0.008 µg/mL; LD50 at 336 h [25]: > 3000 mg/kg |
